Assay results published in US10821177B2, “Induction of differential stress resistance and uses thereof” (University of Southern California, priority 2007, dated 2020).
“Also recorded” adds a separate entry of the source. Where two headings read alike, the source gives them in different places.

Experiments:
[1] = tested on: cortical neurons from E18 rat embryos; conditions: pre-treatment with inhibitor
Protocol: FIG. 23. […] Cortical neurons from E18 rat embryos were cultured onto 96-well plates (A) or glass coverslips in 6-well plates (B). On 10-14 DIV, the neurons were pre-treated with MEK1/ERK1/2 inhibitors U0126 or SL327. Oxidative stress was induced by hydrogen peroxide or menadione. Cell viability was measured with MTT survival assay (A) or live/dead assay (B). C) % death was calculated from the number of dead (red) and live (green) cells.

PC12 cells = assay: IGF-I and paraquat oxidative toxicity, MTT, PC12 cells; assay type: cell-based, rat; conditions: 100 ng/ml IGF-I 24 hr, 100 μM paraquat
Protocol: (§1) FIG. 12. […] Primary rat cortical neurons or PC12 cells incubated in 1% serum and 4 g/L glucose were treated for 24 hr with vehicle, 100 μM of paraquat, 100 ng/ml of IGF-I followed by 100 μM of paraquat, or 100 ng/ml of IGF-1 alone and were then subjected to MTT reduction activity assay to assess cell viability. Data from 4 independent experiments are normalized to control and expressed as the mean±S.E.M.
(§2) Primary rat neurons and PC12 cells were treated with IGF-1 and paraquat to determine the effect of IGF-1 on oxidative stress. Cortical neurons were treated for 24 hours in Eagle's minimal essential medium (Invitrogen) supplemented with 21 mM glucose and 1% horse serum. PC12 cells were plated at 5×10^4 cells/well onto poly-D-lysine coated. 96-well plates and were grown for 24 hours in F12K 1% HS. Both types of cells were then treated with either 100 μM of paraquat, IGF-1 (100 ng/ml) followed 30 minutes later by paraquat (100 μM) or IGF-1 (100 ng/ml) alone in appropriate media. Survival was determined by the MTT assay and presented as percent ratio of treated to control.

[2] = tested on: primary rat cortical neurons; assay: IGF-I and paraquat oxidative toxicity, MTT, cortical neurons; assay type: cell-based; conditions: 100 ng/ml IGF-I 24 hr, 100 μM paraquat
Protocol: as §1
Primary neurons from embryonic day 18 Sprague-Dawley rat cerebral cortices were dissociated in neurobasal medium (Invitrogen) supplemented with 0.5 mM L-glutamine, 25 μM L-glutamic acid and 2% B-27 and plated at 640 cells/mm^2 in 96-well plates which were pre-coated with 10 microg/ml poly-D-lysine dissolved in Borax buffer (0.15 M, pH 8.4). Neurons were maintained at 37° C. in 5% CO2 in neurobasal medium supplemented with B-27 and 0.5 mM L-glutamine for 4 days.
as §2, with “Both types of cells were then treated with either 100 μM of paraquat, IGF-1 (100 ng/ml) followed 30 minutes later by paraquat (100 μM) or IGF-1 (100 ng/ml) alone in appropriate media.” left out

C6 glioma cells = assay: Cyclophosphamide cytotoxicity by LDH release in C6 glioma cells; assay type: cell-based, rat
Protocol: (§5) Primary mixed glial cells were obtained from the cerebral cortex of 1 to 3 day old Sprague Dawley rat pups (Charles River) as described before. Cells cultured for 10-14 days in DMEM/F12 medium with 10% fetal bovine serum (FBS) were used in assays. C6, A10-85, 9L and RG2 rat glioma cell lines and LN229 human glioma cell line and SH-SY5Y human neuroblastoma cell line were maintained in DMEM/F12 medium with 10% FBS at 37° C. under 5% CO2.
(§6) Cells were seeded into 96-well microliter plates at 20,000-30,000 cells/well and incubated for 2 days. Cells were washed with phosphate buffered saline (PBS) prior to treatments as indicated in the text. All treatments were performed at 37° C. under 5% CO2.
Glucose restriction was done by incubating cells in glucose free DMEM (Invitrogen) supplemented with either low glucose (0.5 gL) or normal glucose (1.0 gL) for 24 hours. Serum restriction was done by incubating cells in DMEMIF12 with either 10% or 1% FBS for 24 hours. IGF-I treatment was carried out by incubating cells for 48 hours in DMEM/F12 with 1% FBS and rhIGF-I (100 n g/ml, ProSpec-Tany TechnoGene, Rehovot, Israel), which is shown to be within the IGF-I level range for middle age humans. To antagonize IGF-I receptor activity, cells were incubated with neutralizing monoclonal anti-IGF-IR antibody (aIR3, 1 pg/ml; Calbiochem) in DMEM/F12 1% FBS for 24 hours.
(§7) Cytotoxicity was measured by either LDH release using the CytoTox 96 Non-Radioactive Cytotoxicity Assay kit (Promega) or the ability to reduce methylthiazolyldiphenyltetrazolium bromide (MTT). % LDH release was determined with reference to the maximum and background LDH release of control cells. […]
Cyclophosphamide (CP, Sigma) was used for in vitro chemotherapy studies. […] Cytotoxicity was measured by either lactate dehydrogenase released using the CytoTox 96 Non-Radioactive Cytotoxicity Assay kit (Promega) or the ability to reduce methylthiazolyldiphenyl-tetrazolium bromide (MTT). LDH released into the medium by lysed cells were measured with a 10-minute enzymatic assay that converts a tetrazolium salt (INT) into a red formazan product.

[3] = tested on: sch9/aktΔRAS2^val19 cells; assay: Yeast viability (CFU) in mixed cultures, chronic MMS treatment, RAS2val19-expressing cells; assay type: cell-based, S. cerevisiae; conditions: 48-hour treatment, 0.01% MMS
Protocol: (§3) Overnight cultures were diluted to OD600 0.1 into SDC medium. After 24 hours (day I), the appropriate strains were mixed 1:1 based on OD600 and incubated for 2 hours. The mixed cultures were then treated with either cyclophosphamide (CP, 0.1 M) or […] (MMS, 0.01%, Sigma) in medium or water (STS). For treatment SDC, MMS was introduced directly into the mixed culture to a final concentration of 0.01%. However, due to the high concentration of CP (0.1 M) used, CP was dissolved directly into the medium. To do so, mixed cultures were centrifuged for 5 minutes at 2,500 rpm and the media was collected, in which CP was dissolved to a concentration of 0.1 M. The mixed culture was then resuspended in the CP-containing medium. […] Viability was measured by quantifying colony-forming units (CFUs) every 24 hours by plating onto appropriate selective media. Viability of individual strains was measured using the same method as for the mixed cultures.
(§4) Overnight SDC cultures were diluted to OD600 0.1 into fresh SDC medium. […] Viability was measured as colony-forming units (CFUs) every 24 hours by plating onto appropriate selective media. Viability of individual strains was measured using the same method as for the mixed cultures. Relative survival shown was determined by the percentage of the ratio between the treated and untreated (control) cells.

sch9/aktΔ = assay: Yeast viability (CFU) in mixed cultures, chronic MMS treatment, sch9/aktΔ cells; assay type: cell-based, S. cerevisiae; conditions: 48-hour treatment, 0.01% MMS, mixed culture
Protocol: as §3, §4

LID mice = conditions: for mortality: 500 mg/kg cyclophosphamide i.p.
Protocol: Thirty-four to forty-two-week old LID and their control L/L-mice were used to evaluate the role of circulating liver-derived IGF-I in stress resistance. LID and L/L-mice were generated using the Cre/loxP system as described before. […] All mice were individually caged throughout the experiment and had access to food and water ad libitum. Both LID and L/L-mice were each injected 500 mg/kg of cyclophosphamide i.p. using 29G insulin syringes. Cyclophosphamide was prepared in saline at 40 mg/ml and warmed prior to injection. Mice were routinely monitored for weight loss and signs of pain and stress. Survival time was the main criterion for determining the effect of low circulating IGF-I on the resistance to high-dose cyclophosphamide. The statistical significance of differential survival between experimental groups was determined by Kaplan-Meier curves and log-rank test using GraphPad Prism 4 software (San Diego, Calif.).

[4] = tested on: primary rat mixed glial cells
Protocol: as §5, §6
Glucose restriction was done by incubating cells in glucose free DMEM (Invitrogen) supplemented with either low glucose (0.5 gL) or normal glucose (1.0 gL) for 24 hours. Serum restriction was done by incubating cells in DMEMIF12 with either 10% or 1% FBS for 24 hours. […]
as §7
Cyclophosphamide (CP, Sigma) was used for in vitro chemotherapy studies. […] Cytotoxicity was measured by either lactate dehydrogenase released using the CytoTox 96 Non-Radioactive Cytotoxicity Assay kit (Promega) or the ability to reduce methylthiazolyldiphenyl-tetrazolium bromide (MTT). LDH released into the medium by lysed cells were measured with a 10-minute enzymatic assay that converts a tetrazolium salt (INT) into a red formazan product. A 96-well based colorimetric assay measured the amount of the red formazan formed, which is proportional to the number of dead cells. % LDH release was determined with reference to the maximum and background LDH release of control cells.

[5] = tested on: primary rat mixed glial cells; assay: Cyclophosphamide cytotoxicity by LDH release (serum restriction, IGF-I, aIR3) in primary glia; assay type: cell-based; conditions: 15 mg/ml CP, 10% serum
Protocol: as §5
Cells were seeded into 96-well microliter plates at 20,000-30,000 cells/well and incubated for 2 days. Cells were washed with phosphate buffered saline (PBS) prior to treatments as indicated in the text. All treatments were performed at 37° C. under 5% CO2. […]
as §7
Cyclophosphamide (CP, Sigma) was used for in vitro chemotherapy studies. […] Cytotoxicity was measured by either lactate dehydrogenase released using the CytoTox 96 Non-Radioactive Cytotoxicity Assay kit (Promega) or the ability to reduce methylthiazolyldiphenyl-tetrazolium bromide (MTT). […]

S. cerevisiae = assay type: cell-based; conditions: 48-hour treatment with CP (0.1 M), strains treated separately
Protocol: Overnight cultures were diluted to OD600 0.1 into SDC medium. After 24 hours (day I), the appropriate strains were mixed 1:1 based on OD600 and incubated for 2 hours. […] For treatment SDC, MMS was introduced directly into the mixed culture to a final concentration of 0.01%. However, due to the high concentration of CP (0.1 M) used, CP was dissolved directly into the medium. To do so, mixed cultures were centrifuged for 5 minutes at 2,500 rpm and the media was collected, in which CP was dissolved to a concentration of 0.1 M. The mixed culture was then resuspended in the CP-containing medium. For treatments in water (STS), mixed cultures were centrifuged for 5 minutes at 2,500 rpm and the media was replaced with either distilled/sterile water or drug-dissolved water. Viability was measured by quantifying colony-forming units (CFUs) every 24 hours by plating onto appropriate selective media. Viability of individual strains was measured using the same method as for the mixed cultures.

N#CC(=C(/N)Sc1ccccc1N)/C(C#N)=C(\N)Sc1ccccc1N [U0126]
resistance of neurons to oxidative stress (hydrogen peroxide or menadione) [1]: protects neurons against oxidative stress

IGF-I: rhIGF-I (ProSpec-Tany TechnoGene), 100 ng/ml
sensitization to oxidative toxicity (PC12 cells): not in PC12 cells
sensitization to oxidative toxicity [2]: sensitizes
increase in the toxicity of CP to C6 glioma cells (C6 glioma cells; 100 ng/ml IGF-I): minor increase; also recorded: did not increase

COS(C)(=O)=O [MMS, methyl methanesulfonate]
sch9/aktΔRAS2^val19 cells that survived ([3]; mixed culture (Example I)): none
sch9/aktΔRAS2^val19 cells that survived ([3]; mixed culture (Example II)): less than 5%
sch9/aktΔ cells that survived (sch9/aktΔ): great majority

O=P1(N(CCCl)CCCl)NCCCO1 (stereo not drawn) [CP, cyclophosphamide]
average weight loss (LID mice; LID mice, 500 mg/kg cyclophosphamide): 10%
mortality (LID mice; LID mice): 30%
weight loss (LID mice; control mice, 500 mg/kg cyclophosphamide): 20%
mortality (LID mice; control mice): 70%
signs of toxicity in surviving mice (LID mice; surviving LID mice): did not show any signs of toxicity
glial cells resistant ([4]; 12 mg/ml CP, 0.5 g/L glucose): 80%
cells that survived ([4]; 12 mg/ml CP, 1 g/L glucose): 20%
differential stress resistance of mammalian cells by the starvation-response methods ([4]; normal vs cancer cells): less than 10 fold
toxicity to primary glial cells [5]: toxic
toxicity to C6 glioma cells in 10% serum versus 1% serum (C6 glioma cells; 15 mg/ml CP): as toxic
toxicity to RAS2^val19 and wild type cells (S. cerevisiae): toxic
